Consider 8 molecules from patent US10004701B2, “Methods and compositions for treating infection” (UNIVERSITY OF ROCHESTER, priority 2012, dated 2018).

Structures can show the parent of a compound that is named as a salt. Where two headings read alike, the source gives them in different places.

Common to all, as to assay: AK assay 384-well format, Prestwick library screening
The subject of assay [1] is S. aureus strain USA300-0114. The assay is classed as cell-based, Staphylococcus aureus. Conditions: for fold induction at 50 µM: Staphylococcus aureus, USA300, 3 h.
Assay [2] has as its system A. baumannii strain 98-37-09. The assay is classed as cell-based, Acinetobacter baumannii. Conditions: for fold induction at 50 µM: Acinetobacter baumannii, 983709, 3 h.
Assay [3] concerns E. coli. It is filed as cell-based, Escherichia coli. Conditions: for fold induction at 50 µM: Escherichia coli, 3 h.
Assay [4] has as its system P. aeruginosa. It is filed as cell-based, Pseudomonas aeruginosa. Conditions: for fold induction at 50 µM: Pseudomonas aeruginosa, 3 h.
In assay [5] the test system is E. cloacae. It is filed as cell-based, Enterobacter cloacae. Conditions: for fold induction at 50 µM: Enterobacter cloacae, 3 h.
For assay [6], the system named is K. pneumoniae. The assay is classed as cell-based, Klebsiella pneumoniae. Conditions: for fold induction at 50 µM: Klebsiella pneumoniae, 3 h.
For assay [7], the system named is E. faecium. The assay is classed as cell-based, Enterococcus faecium. Conditions: for fold induction at 50 µM: Enterococcus faecium, 3 h.
[8] abbreviates: 50 μM final drug concentration, 384-well format, cutoff for positive-scoring molecules 3-fold increase, read-out: AK-based Prestwick Library Screening Results, S. aureus (increase in extracellular AK activity).
[9] abbreviates: 50 μM final drug concentration, 384-well format, cutoff for positive-scoring molecules 3-fold increase, read-out: AK-based Prestwick Library Screening Results, A. baumannii (increase in extracellular AK activity).
Setting [10] is: 50 μM final drug concentration, 384-well format, cutoff for positive-scoring molecules 3-fold increase, read-out: AK-based Prestwick Library Screening Results, E. coli (increase in extracellular AK activity).
Where [11] appears, read: 50 μM final drug concentration, 384-well format, cutoff for positive-scoring molecules 3-fold increase, read-out: AK-based Prestwick Library Screening Results, P. aeruginosa (increase in extracellular AK activity).
Setting [12] is: 50 μM final drug concentration, 384-well format, cutoff for positive-scoring molecules 3-fold increase, read-out: AK-based Prestwick Library Screening Results, E. cloacae (increase in extracellular AK activity).
The mark [13] stands for this setting: 50 μM final drug concentration, 384-well format, cutoff for positive-scoring molecules 3-fold increase, read-out: AK-based Prestwick Library Screening Results, K. pneumoniae (increase in extracellular AK activity).
Where [14] appears, read: 50 μM final drug concentration, 384-well format, cutoff for positive-scoring molecules 3-fold increase, read-out: AK-based Prestwick Library Screening Results, E. faecium (increase in extracellular AK activity).
Setting [15] is: 50 μM final drug concentration, 384-well format, cutoff for positive-scoring molecules 3-fold increase.
[16] abbreviates: 50 μM final drug concentration, cutoff for positive-scoring molecules 3-fold increase.

Regarding `C[C@@H]1CN([C@H]2CC[C@](C#N)(c3ccc(F)cc3)CC2)CC[C@]1(C(=O)O)c1ccccc1` [Levocabastine hydrochloride], the fold induction at 50 µM in assay [1] (planktonic S. aureus, 50 μM final drug concentration, positive cutoff 3-fold increase, read-out: AK-based Prestwick library screening result, S. aureus (fold increase in extracellular AK activity)) was 1.1; in assay [2] (planktonic A. baumannii, 50 μM final drug concentration, positive cutoff 3-fold increase, read-out: AK-based Prestwick library screening result, A. baumannii (fold increase in extracellular AK activity)), 1.2; in assay [3] (planktonic E. coli, 50 μM final drug concentration, positive cutoff 3-fold increase, read-out: AK-based Prestwick library screening result, E. coli (fold increase in extracellular AK activity)), 1.1; in assay [4] (planktonic P. aeruginosa, 50 μM final drug concentration, positive cutoff 3-fold increase, read-out: AK-based Prestwick library screening result, P. aeruginosa (fold increase in extracellular AK activity)), 1; in assay [5] (planktonic E. cloacae, 50 μM final drug concentration, positive cutoff 3-fold increase, read-out: AK-based Prestwick library screening result, E. cloacae (fold increase in extracellular AK activity)), 1.6; in assay [6] (planktonic K. pneumoniae, 50 μM final drug concentration, positive cutoff 3-fold increase, read-out: AK-based Prestwick library screening result, K. pneumoniae (fold increase in extracellular AK activity)), 1.1. The fold induction at 50 µM in assay [7] (planktonic E. faecium, 50 μM final drug concentration, positive cutoff 3-fold increase, read-out: AK-based Prestwick library screening result, E. faecium (fold increase in extracellular AK activity)) is 1.

For `CO/N=C(\C(=O)N[C@@H]1C(=O)N2C(C(=O)O)=C(COC(C)=O)CS[C@H]12)c1csc(N)n1` [Cefotaxime sodium salt], the fold induction at 50 µM was found to be 2.9 in assay [1] (planktonic S. aureus, 50 μM final drug concentration, 384-well, cutoff for positive-scoring molecules 3-fold increase, read-out: AK-based Prestwick Library Screening Results: S. aureus (increase in extracellular AK activity)); 2.2 in assay [2] (planktonic A. baumannii, 50 μM final drug concentration, 384-well, cutoff for positive-scoring molecules 3-fold increase, read-out: AK-based Prestwick Library Screening Results: A. baumannii (increase in extracellular AK activity)); 21.9 in assay [3] (planktonic E. coli, 50 μM final drug concentration, 384-well, cutoff for positive-scoring molecules 3-fold increase, read-out: AK-based Prestwick Library Screening Results: E. coli (increase in extracellular AK activity)); 10 in assay [4] (planktonic P. aeruginosa, 50 μM final drug concentration, 384-well, cutoff for positive-scoring molecules 3-fold increase, read-out: AK-based Prestwick Library Screening Results: P. aeruginosa (increase in extracellular AK activity)); 22 in assay [5] (planktonic E. cloacae, 50 μM final drug concentration, 384-well, cutoff for positive-scoring molecules 3-fold increase, read-out: AK-based Prestwick Library Screening Results: E. cloacae (increase in extracellular AK activity)); 5.5 in assay [6] (planktonic K. pneumoniae, 50 μM final drug concentration, 384-well, cutoff for positive-scoring molecules 3-fold increase, read-out: AK-based Prestwick Library Screening Results: K. pneumoniae (increase in extracellular AK activity)). Further, the fold induction at 50 µM in assay [7] (planktonic E. faecium, 50 μM final drug concentration, 384-well, cutoff for positive-scoring molecules 3-fold increase, read-out: AK-based Prestwick Library Screening Results: E. faecium (increase in extracellular AK activity)) turned out to be 1.

For the molecule `C[n+]1ccccc1/C=N/O` [Pralidoxime chloride], the fold induction at 50 µM in assay [1] (read-out: AK-based Prestwick Library Screening Results, S. aureus (fold increase in extracellular AK activity)) turned out to be 1.3; in assay [2] (read-out: AK-based Prestwick Library Screening Results, A. baumannii (fold increase in extracellular AK activity)) it was 1.4; in assay [3] (read-out: AK-based Prestwick Library Screening Results, E. coli (fold increase in extracellular AK activity)) it was 1.3; in assay [4] (read-out: AK-based Prestwick Library Screening Results, P. aeruginosa (fold increase in extracellular AK activity)) it was 1.2; in assay [5] (read-out: AK-based Prestwick Library Screening Results, E. cloacae (fold increase in extracellular AK activity)), 1.5; in assay [6] (read-out: AK-based Prestwick Library Screening Results, K. pneumoniae (fold increase in extracellular AK activity)) it was 1. Besides, the fold induction at 50 µM in assay [7] (read-out: AK-based Prestwick Library Screening Results, E. faecium (fold increase in extracellular AK activity)) came out at 1.

For `C[C@H](CS)C(=O)N1CCC[C@H]1C(=O)O` [Captopril], the fold induction at 50 µM was 0.7 in assay [1] (setting [8]); 0.8 in assay [2] (setting [9]); 0.7 in assay [3] (setting [10]); 0.6 in assay [4] (setting [11]); 0.8 in assay [5] (setting [12]); 0.6 in assay [6] (setting [13]). Moreover, the fold induction at 50 µM in assay [7] (setting [14]) is 1.

`Nc1nc(O)c2[nH]nnc2n1` [Azaguanine-8]: the “AK-based Prestwick Library Screening Results, S. aureus (increase in extracellular AK activity)” value in assay [1] (setting [15]) came out at 0.6. Also, the “AK-based Prestwick Library Screening Results, A. baumannii (increase in extracellular AK activity)” value in assay [2] (setting [15]) is on record as 0.3. For the same molecule, the “AK-based Prestwick Library Screening Results, E. coli (increase in extracellular AK activity)” value in assay [3] (setting [15]) was 0.4. The “AK-based Prestwick Library Screening Results, P. aeruginosa (increase in extracellular AK activity)” value in assay [4] (setting [15]) is listed as 0.3. The “AK-based Prestwick Library Screening Results, E. cloacae (increase in extracellular AK activity)” value in assay [5] (setting [15]) was 0.3. Besides, the “AK-based Prestwick Library Screening Results, K. pneumoniae (increase in extracellular AK activity)” value in assay [6] (setting [15]) amounted to 0.3. Also, the “AK-based Prestwick Library Screening Results, E. faecium (increase in extracellular AK activity)” value in assay [7] (setting [15]) came to 0.8.

As for `C[C@H](CCC(=O)O)[C@H]1CC[C@H]2[C@@H]3[C@@H](O)C[C@@H]4C[C@H](O)CC[C@]4(C)[C@H]3CC[C@]12C` [Urosiol], the “AK-based Prestwick Library Screening Results, S. aureus (fold increase in extracellular AK activity)” value in assay [1] (setting [16]) came out at 1.2. In addition, the “AK-based Prestwick Library Screening Results, A. baumannii (fold increase in extracellular AK activity)” value in assay [2] (setting [16]) is 1.3. For the same molecule, the “AK-based Prestwick Library Screening Results, E. coli (fold increase in extracellular AK activity)” value in assay [3] (setting [16]) was 1.2. The “AK-based Prestwick Library Screening Results, P. aeruginosa (fold increase in extracellular AK activity)” value in assay [4] (setting [16]) amounted to 1.2. The “AK-based Prestwick Library Screening Results, E. cloacae (fold increase in extracellular AK activity)” value in assay [5] (setting [16]) was 1.4. In addition, the “AK-based Prestwick Library Screening Results, K. pneumoniae (fold increase in extracellular AK activity)” value in assay [6] (setting [16]) is listed as 1.0. Besides, the “AK-based Prestwick Library Screening Results, E. faecium (fold increase in extracellular AK activity)” value in assay [7] (setting [16]) is given as 1.0.

Turning to `CC(NCCC(c1ccccc1)c1ccccc1)c1ccccc1` (centres unmarked) [Fendiline hydrochloride], the fold induction at 50 µM in assay [1] (setting [8]) is 0.8; in assay [2] (setting [9]), 1.5; in assay [3] (setting [10]), 1; in assay [4] (setting [11]), 1.1; in assay [5] (setting [12]) it was 0.9; in assay [6] (setting [13]), 0.8. Further, the fold induction at 50 µM in assay [7] (setting [14]) was determined as 1.1.

`CCOc1ccc(Cc2nccc3cc(OCC)c(OCC)cc23)cc1OCC` [Ethaverine hydrochloride]: the fold induction at 50 µM is 0.5 in assay [1] (50 μM final drug concentration, planktonic, cutoff for positive-scoring molecules 3-fold increase, read-out: AK-based Prestwick Library Screening Results, S. aureus (fold increase in extracellular AK activity)); 0.9 in assay [2] (50 μM final drug concentration, planktonic, cutoff for positive-scoring molecules 3-fold increase, read-out: AK-based Prestwick Library Screening Results, A. baumannii (fold increase in extracellular AK activity)); 0.9 in assay [3] (50 μM final drug concentration, planktonic, cutoff for positive-scoring molecules 3-fold increase, read-out: AK-based Prestwick Library Screening Results, E. coli (fold increase in extracellular AK activity)); 0.9 in assay [4] (50 μM final drug concentration, planktonic, cutoff for positive-scoring molecules 3-fold increase, read-out: AK-based Prestwick Library Screening Results, P. aeruginosa (fold increase in extracellular AK activity)); 1 in assay [5] (50 μM final drug concentration, planktonic, cutoff for positive-scoring molecules 3-fold increase, read-out: AK-based Prestwick Library Screening Results, E. cloacae (fold increase in extracellular AK activity)); 0.7 in assay [6] (50 μM final drug concentration, planktonic, cutoff for positive-scoring molecules 3-fold increase, read-out: AK-based Prestwick Library Screening Results, K. pneumoniae (fold increase in extracellular AK activity)). Also, the fold induction at 50 µM in assay [7] (50 μM final drug concentration, planktonic, cutoff for positive-scoring molecules 3-fold increase, read-out: AK-based Prestwick Library Screening Results, E. faecium (fold increase in extracellular AK activity)) came to 1.
